Source: patent publication US20050158412A1, “Type II diabetes” (priority 2004, published 2005)

Molecular target: T1, Aldose Reductase (Rattus norvegicus, UniProt P07943)
T1 construct: Aldose Reductase was isolated from Rat lens; from tissue; host or cells: rat lens
Test: Aldose Reductase enzyme assay
Type: biochemical
Details: Wistar rat lens enzyme
Procedure: Experiments were conducted to test the effects of Morinda citrifolia products on Aldose Reductase. Aldose Reductase is an enzyme that is highly expressed in the eye (lens) of diabetic patients. High expression of Aldose Reductase may lead to blindness. Quantitation of Aldose Redutase activity was achieved by utilizing DL-Glyceraldehyde as a substrate. DL-Glyceraldehyde reacts with NADPH to form NADP+. A spectrophotometer was utilized to quantitiate levels of NADPH. Aldose Reductase was isolated from Rat lens. Quercertin was utilized as a reference compound. Methods employed in this study were adapted from the scientific literature to maximize reliability and reproducibility. […] Biochemical assay results are presented as the percent inhibition of specific binding or activity throughout the report. All other results are expressed in terms of that assay's quantitation method. For primary assays, only the lowest concentration with a significant response judged by the assays' criteria, is shown in this summary.

With O=c1c(O)c(-c2ccc(O)c(O)c2)oc2cc(O)cc(O)c12 [Quercetin] the “% INH. Aldose Reductase” value (conc. 1%) was 77% and the “% INH. Aldose Reductase” value (conc. 5%) was 77%.
